Source: US9034859B2, “Sulfated oxysterol and oxysterol sulfation by hydroxysterol sulfotransferase promote lipid homeostasis and liver proliferation” (Virginia Commonwealth University, priority 2011, dated 2015)

Columns and labels:
Format in all cases: in vivo, C57BL/6J female mice
[1] = Serum parameters after acute treatment of HFD- or HCD-fed mice (NAFLD model); conditions: 25 mg/kg i.p. twice, fasted overnight, mean ± SD, n=15-17
Protocol: (§1) Animal studies were approved by Institutional Animal Care and Use Committee of McGuire Veterans Affairs Medical Center and were conducted in accordance with the Declaration of Helsinki, the Guide for the Care and Use of Laboratory Animals, and all applicable regulations. To examine the effect of 25HC3S on diet-induced lipid accumulation in sera and liver, 8-week-old female C57BL/6J mice (Charles River, Wilmington, Mass.) were randomly assigned to three groups: the first control group was fed a chow diet; the high fat diet (HFD) group was fed a HFD (Harlan Teklad, Madison, Wis.) containing 42% kcal from fat, 43% kcal from carbohydrate, 15% kcal from protein and 0.2% cholesterol; and the high cholesterol diet (HCD) group was fed a 2% cholesterol diet with 18% kcal from fat, 58% kcal from carbohydrate and 24% kcal from protein for 10 weeks, respectively. All mice were housed under identical conditions in an aseptic facility and given free access to water and food. At the end of each period, the mice were intraperitoneally injected with vehicle solution (ethanol/PBS; Vehicle), 25HC (25 mg/kg), or 25HC3S (25 mg/kg) for 2 times and fasted over night for acute treatment (n=15-17 for each group) or once every three days for 6 weeks (n=16 for each group) and fasted 5 hrs for long-term treatment; and blood samples were collected. Serum triglyceride, total cholesterol, high density lipoprotein-cholesterol, glucose, alkaline phosphatase (ALK), alanine aminotransferase (ALT), and aspartate aminotransferase (AST) were measured using standard enzymatic techniques in the clinical laboratory at McGuire Veterans Affairs Medical Center. Lipoprotein profiles in sera were analyzed by HPLC as following described.

[2] = tested on: lipogenic gene expression; experiment: Relative hepatic mRNA expression by real-time RT-PCR, acute treatment; conditions: liver; for ABCA1 relative hepatic mRNA / ABCG1 relative hepatic mRNA / ACC1 relative hepatic mRNA / ACOX1 relative hepatic mRNA / CD36 relative hepatic mRNA / CPT1 relative hepatic mRNA / CYP7α relative hepatic mRNA / CYP27α relative hepatic mRNA / FABP1 relative hepatic mRNA / FAS relative hepatic mRNA / FATP relative hepatic mRNA / G6Pase relative hepatic mRNA / GCK relative hepatic mRNA / GPAM relative hepatic mRNA / LDLR relative hepatic mRNA / LXRα relative hepatic mRNA / MCAD relative hepatic mRNA / MTTP relative hepatic mRNA / PCK1 relative hepatic mRNA / PLTP relative hepatic mRNA / PPARα relative hepatic mRNA / Pkir relative hepatic mRNA / SCD relative hepatic mRNA / SRB1 relative hepatic mRNA / SREBP-1c relative hepatic mRNA / SULT2B1b relative hepatic mRNA: acute treatment (twice), mean ± SD, n=5-6
Protocol: as §1
Total RNA was isolated with SV Total RNA Isolation Kit (Promega, Madison, Wis.), which included DNase treatment. Total RNA, 2 μg, was used for the first-strand cDNA synthesis as recommended by the manufacturer (Invitrogen, Carlsbad, Calif.). Real-time RT-PCR was performed using SYBR Green as indicator on ABI 7500 Fast Real-Time PCR System (Applied Biosystems, Foster City, Calif.). All primer/probe sets for real-time PCR were TaqMan gene expression assays (Applied Biosystems, Foster City, Calif.). Amplifications of β-actin and GAPDH were used as internal controls. Relative messenger RNA (mRNA) expression was quantified with the comparative cycle threshold (Ct) method and was expressed as 2^−ΔΔCt. Suitable primers were utilized.

SREBP-1c pathway = experiment: Western blot of cytoplasmic and nuclear liver extracts, acute treatment; conditions: HFD mice
Protocol: Animal studies were approved by Institutional Animal Care and Use Committee of McGuire Veterans Affairs Medical Center and were conducted in accordance with the Declaration of Helsinki, the Guide for the Care and Use of Laboratory Animals, and all applicable regulations. […] All mice were housed under identical conditions in an aseptic facility and given free access to water and food. At the end of each period, the mice were intraperitoneally injected with vehicle solution (ethanol/PBS; […] Serum triglyceride, total cholesterol, high density lipoprotein-cholesterol, glucose, alkaline phosphatase (ALK), alanine aminotransferase (ALT), and aspartate aminotransferase (AST) were measured using standard enzymatic techniques in the clinical laboratory at McGuire Veterans Affairs Medical Center. Lipoprotein profiles in sera were analyzed by HPLC as following described. Liver tissues were homogenized, and cytoplasmic and nuclear fractions were extracted with NE-PER Nuclear and Cytoplasmic Extraction Kit (Fisher Scientific, Pittsburgh, Pa.). […] Each positive band was quantified by Advanced Image Data Analyzer (Aida, Straubenhardt, Germany).

[3] = HPLC analysis of serum lipoprotein profiles; conditions: HFD mice, acute treatment
Protocol: Animal studies were approved by Institutional Animal Care and Use Committee of McGuire Veterans Affairs Medical Center and were conducted in accordance with the Declaration of Helsinki, the Guide for the Care and Use of Laboratory Animals, and all applicable regulations. […] All mice were housed under identical conditions in an aseptic facility and given free access to water and food. At the end of each period, the mice were intraperitoneally injected with vehicle solution (ethanol/PBS; […] Serum triglyceride, total cholesterol, high density lipoprotein-cholesterol, glucose, alkaline phosphatase (ALK), alanine aminotransferase (ALT), and aspartate aminotransferase (AST) were measured using standard enzymatic techniques in the clinical laboratory at McGuire Veterans Affairs Medical Center. Lipoprotein profiles in sera were analyzed by HPLC as following described. […] Fractions were collected for 1.2 min each. The cholesterol assay was performed using 180 μl of each fraction plus 20 μl of a 10× solution of Wako Total Cholesterol E Reagent (Wako Chemicals USA, Richmond, Va.) in a 96 well plate, incubated at 37° C. and read at 595 nm.

[4] = HPLC analysis of 25HC3S and 25HC levels in liver tissues; conditions: HFD mice, acute treatment
[5] = HFD mice, acute treatment, compared to vehicle

SMILES: CC(CCCC(C)(C)O)C1CCC2C3CC=C4CC(OS(=O)(=O)O)CCC4(C)C3CCC12C (stereo not shown) [25HC3S, 25-hydroxycholesterol-3-sulfate]
- ALK ([1]; HCD 10 weeks): 89 ± 19 IU/L
- ALT ([1]; HCD 10 weeks): 44 ± 5 IU/L
- AST ([1]; HCD 10 weeks): 227 ± 48 IU/L
- Cholesterol ([1]; HCD 10 weeks): 86 ± 7 mg/dL
- Glucose ([1]; HCD 10 weeks): 249 ± 39 mg/dL
- HDL-C ([1]; HCD 10 weeks): 77 ± 7 mg/dL
- Triglycerides ([1]; HCD 10 weeks): 43 ± 8 mg/dL
- ALK ([1]; HFD 10 weeks): 76 ± 21 IU/L
- ALT ([1]; HFD 10 weeks): 47 ± 6 IU/L
- AST ([1]; HFD 10 weeks): 222 ± 54 IU/L
- Cholesterol ([1]; HFD 10 weeks): 87 ± 24 mg/dL
- Glucose ([1]; HFD 10 weeks): 245 ± 50 mg/dL
- HDL-C ([1]; HFD 10 weeks): 72 ± 26 mg/dL
- Triglycerides ([1]; HFD 10 weeks): 34 ± 9 mg/dL
- ABCA1 relative hepatic mRNA ([2]; HFD mice): 0.71 ± 0.12
- ABCG1 relative hepatic mRNA ([2]; HFD mice): 1.14 ± 0.76
- ACC1 relative hepatic mRNA ([2]; HFD mice): 0.56 ± 0.12
- ACOX1 relative hepatic mRNA ([2]; HFD mice): 0.82 ± 0.16
- CD36 relative hepatic mRNA ([2]; HFD mice): 0.93 ± 0.36
- CPT1 relative hepatic mRNA ([2]; HFD mice): 1.05 ± 0.19
- CYP7α relative hepatic mRNA ([2]; HFD mice): 0.60 ± 0.18
- CYP27α relative hepatic mRNA ([2]; HFD mice): 1.06 ± 0.23
- FABP1 relative hepatic mRNA ([2]; HFD mice): 1.14 ± 0.45
- FAS relative hepatic mRNA ([2]; HFD mice): 0.33 ± 0.21
- FATP relative hepatic mRNA ([2]; HFD mice): 1.05 ± 0.29
- G6Pase relative hepatic mRNA ([2]; HFD mice): 1.36 ± 0.77
- GCK relative hepatic mRNA ([2]; HFD mice): 1.10 ± 0.68
- GPAM relative hepatic mRNA ([2]; HFD mice): 1.16 ± 0.08
- LDLR relative hepatic mRNA ([2]; HFD mice): 1.07 ± 0.09
- LXRα relative hepatic mRNA ([2]; HFD mice): 0.79 ± 0.10
- MCAD relative hepatic mRNA ([2]; HFD mice): 1.36 ± 0.31
- MTTP relative hepatic mRNA ([2]; HFD mice): 1.31 ± 0.20
- PCK1 relative hepatic mRNA ([2]; HFD mice): 1.02 ± 0.25
- PLTP relative hepatic mRNA ([2]; HFD mice): 0.97 ± 0.55
- PPARα relative hepatic mRNA ([2]; HFD mice): 0.93 ± 0.35
- Pkir relative hepatic mRNA ([2]; HFD mice): 0.61 ± 0.18
- SCD relative hepatic mRNA ([2]; HFD mice): 0.93 ± 0.27
- SRB1 relative hepatic mRNA ([2]; HFD mice): 1.30 ± 0.22
- SREBP-1c relative hepatic mRNA ([2]; HFD mice): 0.56 ± 0.13
- SULT2B1b relative hepatic mRNA ([2]; HFD mice): 1.29 ± 0.34
- reduction of ACCT mRNA level [2, 5]: 45%
- reduction of FAS mRNA level [2, 5]: 70%
- reduction of LXRα mRNA level [2, 5]: 20%
- reduction of SREBP-1c mRNA level [2, 5]: 45%
- suppression of FAS protein level (SREBP-1c pathway): 40%
- suppression of cytoplasmic ACC1 protein level (SREBP-1c pathway): 50%
- suppression of nuclear SREBP-1c protein level (SREBP-1c pathway): 70%
- LDL, VLDL, and HDL protein levels [3]: did not change
- cholesterol contents in HDL fractions [3]: slightly decreased
- triglyceride contents in VLDL fractions [3]: markedly decreased
- level of the administered compound in liver [4]: significantly increased

SMILES: C[C@H](CCCC(C)(C)O)[C@H]1CC[C@H]2[C@@H]3CC=C4C[C@@H](O)CC[C@]4(C)[C@H]3CC[C@]12C [25HC, 25-hydroxycholesterol]
- ALK ([1]; HFD 10 weeks): 55 ± 12 IU/L
- ALT ([1]; HFD 10 weeks): 56 ± 14 IU/L
- AST ([1]; HFD 10 weeks): 294 ± 57 IU/L
- Cholesterol ([1]; HFD 10 weeks): 144 ± 24 mg/dL
- Glucose ([1]; HFD 10 weeks): 188 ± 26 mg/dL
- HDL-C ([1]; HFD 10 weeks): 119 ± 21 mg/dL
- Triglycerides ([1]; HFD 10 weeks): 49 ± 13 mg/dL
- decrease of ACOX1 mRNA level ([2]; HFD mice, acute treatment): 55%
- decrease of PPARα mRNA level ([2]; HFD mice, acute treatment): 40%
- decrease of SCD mRNA level ([2]; HFD mice, acute treatment): 40%
- increase of ACC1 mRNA level ([2]; HFD mice, acute treatment): 160%
- increase of FAS mRNA level ([2]; HFD mice, acute treatment): 150%
- increase of SREBP-1c mRNA level ([2]; HFD mice, acute treatment): 170%
- increase of SULT2B1b expression ([2]; HFD mice, acute treatment): 3 fold
- ABCA1 relative hepatic mRNA ([2]; HFD mice): 1.08 ± 0.24
- ABCG1 relative hepatic mRNA ([2]; HFD mice): 1.38 ± 0.78
- ACC1 relative hepatic mRNA ([2]; HFD mice): 1.58 ± 0.64
- ACOX1 relative hepatic mRNA ([2]; HFD mice): 0.45 ± 0.17
- CD36 relative hepatic mRNA ([2]; HFD mice): 0.71 ± 0.24
- CPT1 relative hepatic mRNA ([2]; HFD mice): 0.94 ± 0.16
- CYP7α relative hepatic mRNA ([2]; HFD mice): 0.19 ± 0.18
- CYP27α relative hepatic mRNA ([2]; HFD mice): 1.00 ± 0.12
- FABP1 relative hepatic mRNA ([2]; HFD mice): 0.48 ± 0.15
- FAS relative hepatic mRNA ([2]; HFD mice): 1.45 ± 0.18
- FATP relative hepatic mRNA ([2]; HFD mice): 0.67 ± 0.12
- G6Pase relative hepatic mRNA ([2]; HFD mice): 0.25 ± 0.13
- GCK relative hepatic mRNA ([2]; HFD mice): 0.57 ± 0.16
- GPAM relative hepatic mRNA ([2]; HFD mice): 1.12 ± 0.27
- LDLR relative hepatic mRNA ([2]; HFD mice): 1.38 ± 0.50
- LXRα relative hepatic mRNA ([2]; HFD mice): 0.98 ± 0.09
- MCAD relative hepatic mRNA ([2]; HFD mice): 0.75 ± 0.12
- MTTP relative hepatic mRNA ([2]; HFD mice): 1.04 ± 0.14
- PCK1 relative hepatic mRNA ([2]; HFD mice): 1.47 ± 0.37
- PLTP relative hepatic mRNA ([2]; HFD mice): 0.81 ± 0.36
- PPARα relative hepatic mRNA ([2]; HFD mice): 0.59 ± 0.09
- Pkir relative hepatic mRNA ([2]; HFD mice): 0.77 ± 0.13
- SCD relative hepatic mRNA ([2]; HFD mice): 0.59 ± 0.13
- SRB1 relative hepatic mRNA ([2]; HFD mice): 1.52 ± 0.31
- SREBP-1c relative hepatic mRNA ([2]; HFD mice): 1.69 ± 0.75
- SULT2B1b relative hepatic mRNA ([2]; HFD mice): 3.33 ± 0.89
- increase of IL1α expression ([2]; data not shown): 217%
- increase of NFκB expression ([2]; data not shown): 168%
- nuclear SREBP-1, cytoplasmic ACC1 and FAS protein levels (SREBP-1c pathway): increased
- cholesterol contents in LDL and HDL fractions [3]: significantly increased
- triglyceride contents in LDL fractions [3]: significantly increased
- level of the administered compound in liver [4]: significantly increased
